# According to ChEMBL document CHEMBL1128274, “6-Aminoquinolones: a new class of quinolone antibacterials?” (1995):
# Key:
# Type in all cases: functional
# [1] = system: Acinetobacter calcoaceticus; assay: Tested in vitro for inhibitory activity against gram negative bacteria Acinetobacter calcoaceticus OSMPV 113 strain.
# [2] = system: Enterobacter cloacae; assay: Tested in vitro for inhibitory activity against gram negative bacteria Enterobacter cloacae OMNFI 174 strain.
# [3] = system: Escherichia coli; assay: Tested in vitro for inhibitory activity against gram negative bacteria Escherichia coli ATCC 8739 strain
# [4] = system: Escherichia coli; assay: Tested in vitro for inhibitory activity against gram negative bacteria Escherichia coli ISF 432 strain.
# [5] = system: Shigella; assay: Tested in vitro for inhibitory activity against gram negative bacteria Shigella enteritidis
# [6] = system: Staphylococcus epidermidis; assay: Tested in vitro for inhibitory activity against gram positive bacteria Staphylococcus epidermidis HCF berset C strain
# [7] = system: Staphylococcus aureus; assay: Tested in vitro for inhibitory activity against gram positive bacteria Staphylococcus aureus ATCC 6538 strain
# [8] = system: Staphylococcus aureus; assay: Tested in vitro for inhibitory activity against gram positive bacteria Staphylococcus aureus MPR 5 strain
# [9] = system: Enterococcus faecalis; assay: Tested in vitro for inhibitory activity against gram positive bacteria Streptococcus faecalis LEP Br strain
# [10] = system: Staphylococcus epidermidis; assay: Tested in vitro for inhibitory activity against gram positive bacteria Staphylococcus epidermidis CPHL A2 strain
# [11] = system: Klebsiella pneumoniae; assay: Tested in vitro for inhibitory activity against gram negative bacteria Klebsiella pneumoniae ATCC 10031 strain
# [12] = system: Providencia stuartii; assay: Tested in vitro for inhibitory activity against gram negative bacteria Providencia stuartii CNUR 5 strain
# [13] = system: Pseudomonas aeruginosa; assay: Tested in vitro for inhibitory activity against gram negative bacteria Pseudomonas aeruginosa ATCC 9027 strain
# [14] = system: Escherichia coli; assay: Tested in vitro for inhibitory activity against gram negative bacteria Escherichia coli ATCC 8739 cell lines at 25 ug/mL
# [15] = system: Escherichia coli; assay: Tested in vitro for inhibitory activity against gram negative bacteria Escherichia coli ISF 432 cell lines at 25 ug/mL
Compound,MIC [1] [µg/mL],MIC [2] [µg/mL],MIC [3] [µg/mL],MIC [4] [µg/mL],MIC [5] [µg/mL],MIC [6] [µg/mL],MIC [7] [µg/mL],MIC [8] [µg/mL],MIC [9] [µg/mL],MIC [10] [µg/mL],MIC [11] [µg/mL],MIC [12] [µg/mL],MIC [13] [µg/mL],MIC [14] [µg/mL],MIC [15] [µg/mL]
NCCSc1cc2c(cc1N)c(=O)c(C(=O)O)cn2C1CC1,128,128,1,1,128,128,128,128,128,128,2,128,128,,
Nc1cc2c(=O)c(C(=O)O)cn(-c3ccc(F)cc3)c2cc1N1CCSCC1,4,4,0.06,0.03,4,4,0.5,1,128,4,0.03,4,128,,
NCCN1CCN(c2cc3c(cc2N)c(=O)c(C(=O)O)cn3C2CC2)CC1,32,2,0.5,0.5,2,32,128,128,128,64,0.5,128,32,,
Nc1cc2c(=O)c(C(=O)O)cn(C3CC3)c2cc1N1CCNCC1,16,0.25,0.25,0.03,0.5,16,64,64,128,16,0.25,32,2,,
N#CCN1CCN(c2cc3c(cc2N)c(=O)c(C(=O)O)cn3C2CC2)CC1,64,2,4,2,32,64,64,64,,64,2,2,64,,
CC(C)(C)n1cc(C(=O)O)c(=O)c2cc(N)c(N3CCc4ccccc4C3)cc21,2,8,0.12,0.12,8,1,0.25,0.5,8,0.5,0.12,4,32,,
O=C(O)c1cn(C2CC2)c2cc(N3CCNCC3)c(F)cc2c1=O [CIPROFLOXACIN],0.06,,,,0.03,0.12,0.12,0.12,0.5,0.06,0.03,0.06,0.06,,
O=C(O)c1cn(C2CC2)c2c(F)c(N3CCSCC3)c(F)cc2c1=O,1,0.25,0.01,0.008,0.25,0.06,0.03,0.03,0.5,0.06,0.008,0.12,1,,
CC(C)(C)n1cc(C(=O)O)c(=O)c2cc(N)c(N3CCc4ccccc43)cc21,8,8,0.12,0.12,8,4,2,2,64,4,0.12,4,32,,
Nc1cc2c(=O)c(C(=O)O)cn(C3CC3)c2cc1N1CCC(O)CC1,2,2,0.03,0.03,2,4,4,4,8,2,0.03,8,8,,
CC(C)(C)n1cc(C(=O)O)c(=O)c2cc(N)c(N3CCN(c4ccccn4)CC3)cc21,1,64,0.5,0.5,64,2,1,1,16,1,0.25,128,128,,
CN1CCN(c2c(F)c(N)c3c(=O)c(C(=O)O)cn(C4CC4)c3c2F)CC1,0.05,0.03,0.004,0.002,0.03,0.25,0.06,0.06,0.5,0.12,0.002,0.06,0.25,,
CC(=O)NC1CCN(c2cc3c(cc2N)c(=O)c(C(=O)O)cn3C2CC2)C1 (stereo not drawn),128,128,4,4,128,128,128,128,128,128,4,128,128,,
Nc1cc2c(=O)c(C(=O)O)cn(C3CC3)c2cc1N1CCC(N)C1 (stereo not drawn),128,16,1,0.5,16,128,128,128,128,128,1,128,16,,
CN1CCN(c2nc3c(cc2N)c(=O)c(C(=O)O)cn3C2CC2)CC1,4,0.12,,,0.12,4,4,4,32,4,0.03,2,2,0.12,0.03
CN1CCN(c2nc3c(c(N)c2N)c(=O)c(C(=O)O)cn3C2CC2)CC1,0.5,0.25,0.25,0.01,0.25,2,2,2,8,2,0.01,0.5,8,,
CN1CCN(c2c(N)cc3c(=O)c(C(=O)O)cn(C4CC4)c3c2F)CC1,8,0.25,,,0.25,8,4,4,64,4,0.05,4,2,1,0.05
CC(C)(C)n1cc(C(=O)O)c(=O)c2cc(N)c(N3CCCC3)cc21,16,16,0.12,0.12,32,8,4,8,128,8,0.12,64,64,,
CN1CCN(c2cc3c(cc2N)c(=O)c(C(=O)O)cn3C(C)(C)C)CC1,4,1,,,1,4,2,2,32,2,0.06,4,4,0.06,0.06
Nc1cc2c(=O)c(C(=O)O)cn(C3CC3)c2cc1N1CCSC1,128,16,0.5,1,32,64,64,128,128,64,0.5,128,128,,
Nc1cc2c(=O)c(C(=O)O)cn(C3CC3)c2cc1N1CCCC1,128,8,0.25,0.25,16,128,128,128,128,128,0.25,128,128,,
CC1CN(c2cc3c(cc2N)c(=O)c(C(=O)O)cn3C2CC2)CCN1 (stereo not drawn),16,0.25,0.03,0.03,0.25,4,16,16,32,4,0.03,16,2,,
C[C@@H]1CN(c2cc3c(cc2N)c(=O)c(C(=O)O)cn3C2CC2)C[C@H](C)N1,8,0.5,0.03,0.03,0.25,4,8,8,32,2,0.03,4,2,,
CN1CCN(c2cc3c(cc2N)c(=O)c(C(=O)O)cn3-c2ccc(F)cc2)CC1,16,4,0.12,0.12,4,8,8,4,64,8,0.12,4,8,,
